# Measured values from patent US20220402925A1, “COMPOUNDS AND METHODS FOR THE TREATMENT OF CYSTIC FIBROSIS” (Flatley Discovery Lab, LLC, priority 2019, published 2022).
# Molecular target: T1, F508del CFTR (Homo sapiens, UniProt P13569, DEL508-508)
# T1 construct: Primary CF airway epithelial cells were obtained from the UNC Cystic Fibrosis Tissue Procurement and Cell Culture Core; host or cells: primary CF airway epithelial cells
# Assay: Equivalent current assay in primary CF airway epithelial cells (Corrector Activity, NAUC normalized to 3 μM VX809)
# Type: cell-based
# Settings: NAUC as % of positive control (VX-809)
# Protocol: Primary CF airway epithelial cells were obtained from the UNC Cystic Fibrosis Tissue Procurement and Cell Culture Core. The cells are grown at 37° C. in a Heracell 150i incubator using growth media (BEGM, Fischer). Cells were then transferred to differentiation media (airway liquid interface media (ALI) media; Lechner J F and LaVeck M A, J. Tissue Culture Methods 1985, 9: 43-48) for a minimum of 4 weeks on coated Costar transwells. Two days before the assay the mucus on the apical surface of the cells was aspirated after incubating with 200 μL of differentiation media for at least thirty (30) minutes. One day before the assay test compounds were added to the basolateral surface of the cells at various test concentrations dissolved in DMSO. Duplicate wells were prepared giving a n=4 or n=6 protocol.
# Cells were treated for 24 hours with various combinations and concentrations of the test articles, reference standard (3 μM VX809, positive control). Compounds stock solutions were prepared in DMSO and diluted 1/1000 into ALI media to their final assay concentration. Cells were treated with combination solutions (2 mL of each dilution) and incubated at 37° C. for 24 h.
# For the equivalent current assay, cells on six Transwell (24-well) plates were treated. Each Transwell plate was filled with 200 μl of HBS on the apical surface and 2 ml on the basolateral surface. Plates were placed horizontally in a heated mount at 37° C. and equilibrated for 30 minutes. Resting current was measured for 15 min and then blocked by the apical addition of 5 μM benzamil. After 20 min, CFTR activator (10 μM forskolin) and potentiator (either 1 μM VX-770 or 3 μM FDL176) were added to both the apical and basolateral side to stimulate CFTR. An increase in chloride current is seen as an upward deflection of the trace. After another 60 min, CFTR-172 (a CFTR inhibitor, 20 μM) and/or bumetanide (20 uM) was added to block CFTR mediated chloride current.
# The raw data, voltage vs. time and resistance vs. time for the equivalent current assay (sampling interval: 6 minutes) were transferred to Excel (Microsoft Office Professional, version 14.0.7106.5003) for analysis. CFTR specific current was computed from I=V/R (Ohms Law), the average amplitude of the increase in current elicited upon addition forskolin and ending upon addition of the CFTR channel specific blocker CFTR-172. This average is equivalent to the sum of the average forskolin activated and the average VX770-potentiated currents. The average current measured in vehicle (0.1% DMSO) treated cells, IV, was subtracted from the current for the test article, ITA, or from the corrector reference standard VX809 (3 uM, ISTD). For replicate measurements, the averaged vehicle subtracted response for the test article, was normalized to the averaged vehicle subtracted response of the reference corrector VX809 (3 μM).
# INSC=(ITA−IV)(ave)/(ISTD−IV)(ave) (Equation 1)
# A second endpoint, for the equivalent current assay, evaluated was NAUC, the normalized area under the curve (AUC) measuring the response after addition of forskolin and potentiator to the time point right before the addition of the CFTR inhibitor. The AUC is effectively the average response multiplied by the duration of the response. The AUC of the test article, AUCTA was then corrected by subtracting the average vehicle response, AUCV,ave over the same time range, and normalized as for the inhibitor-sensitive current to the difference of the corrector reference standard VX809 (3 μM VX809r,ave and the vehicle response:
# NAUCTA=[AUCTA−AUCV,ave]/[AUCVx809r,ave−AUCV,ave] (Equation 2).
# The normalized value for DMSO is 0.0 and for VX-809 alone is 1.0 for both of these equations.
# Experiments were run with a minimum of n=4 replicates per concentration. Since the distribution for the ratio of two normal distributions is a Cauchy distribution, the median value must be used for the average and the average deviation must be used for the error of all normalized data. […]
# T1 sequence (P13569 with tags, fused parts or gaps DEL508-508): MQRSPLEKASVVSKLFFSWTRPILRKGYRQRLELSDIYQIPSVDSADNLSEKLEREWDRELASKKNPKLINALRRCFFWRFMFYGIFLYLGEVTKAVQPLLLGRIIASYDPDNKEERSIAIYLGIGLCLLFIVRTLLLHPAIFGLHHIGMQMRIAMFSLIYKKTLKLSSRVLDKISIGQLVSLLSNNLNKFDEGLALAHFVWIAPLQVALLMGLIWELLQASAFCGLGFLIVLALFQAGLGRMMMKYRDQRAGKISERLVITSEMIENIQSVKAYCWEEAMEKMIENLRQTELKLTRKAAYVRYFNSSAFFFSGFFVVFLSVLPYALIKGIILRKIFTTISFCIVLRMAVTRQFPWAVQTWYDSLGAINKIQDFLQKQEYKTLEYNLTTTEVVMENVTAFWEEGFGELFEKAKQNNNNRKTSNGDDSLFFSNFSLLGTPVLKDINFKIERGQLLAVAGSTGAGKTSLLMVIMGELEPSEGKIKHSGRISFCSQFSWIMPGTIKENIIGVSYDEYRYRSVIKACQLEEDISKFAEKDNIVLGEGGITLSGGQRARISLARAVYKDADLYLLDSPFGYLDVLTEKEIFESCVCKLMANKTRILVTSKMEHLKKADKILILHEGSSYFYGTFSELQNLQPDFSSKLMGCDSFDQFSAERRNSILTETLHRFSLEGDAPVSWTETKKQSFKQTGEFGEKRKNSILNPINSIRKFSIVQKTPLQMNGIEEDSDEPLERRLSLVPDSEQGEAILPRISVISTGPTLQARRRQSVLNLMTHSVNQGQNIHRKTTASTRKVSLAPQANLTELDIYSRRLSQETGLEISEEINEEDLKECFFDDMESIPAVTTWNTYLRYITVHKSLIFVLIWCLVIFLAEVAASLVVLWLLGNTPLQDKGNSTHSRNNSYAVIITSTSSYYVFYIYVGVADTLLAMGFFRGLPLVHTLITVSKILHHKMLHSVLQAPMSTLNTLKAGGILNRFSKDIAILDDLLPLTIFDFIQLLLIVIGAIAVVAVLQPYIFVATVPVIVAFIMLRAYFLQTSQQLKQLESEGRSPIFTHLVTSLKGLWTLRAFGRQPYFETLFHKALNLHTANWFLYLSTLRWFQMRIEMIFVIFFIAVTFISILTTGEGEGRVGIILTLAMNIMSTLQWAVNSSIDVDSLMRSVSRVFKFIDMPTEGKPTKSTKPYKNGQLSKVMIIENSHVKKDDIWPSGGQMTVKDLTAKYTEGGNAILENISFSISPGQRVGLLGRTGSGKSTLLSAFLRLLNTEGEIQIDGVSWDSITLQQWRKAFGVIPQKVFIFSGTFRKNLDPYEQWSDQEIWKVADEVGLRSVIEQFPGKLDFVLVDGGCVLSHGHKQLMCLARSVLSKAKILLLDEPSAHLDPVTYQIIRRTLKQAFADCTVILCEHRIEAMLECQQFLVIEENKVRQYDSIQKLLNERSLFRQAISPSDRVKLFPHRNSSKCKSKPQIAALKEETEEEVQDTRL
row,SMILES,Corr Activity (NAUC)
1,"Cc1nc2ccc(N(C)C(=O)Cn3nc(-c4cccc(F)c4)c4sccc4c3=O)cc2o1 [Example 1, 2-(7-(3-Fluorophenyl)-4-oxothieno[2,3-d]pyridazin-5(4H)-yl)-N-methyl-N-(2-methylbenzo[d]oxazol-6-yl)acetamide]",+++ (NAUC>70% of positive control)
2,CN(C(=O)Cn1nc(-c2cccc(F)c2)c2sccc2c1=O)c1ccc2c(c1)CCC2 [Example 3],+++ (NAUC>70% of positive control)
3,CCN(C(=O)Cn1nc(-c2cccc(Cl)c2)c2sccc2c1=O)c1ccc2nc(C)oc2c1 [Example 4],+++ (NAUC>70% of positive control)
4,CCN(C(=O)Cn1nc(-c2cccc(Cl)c2)c2sccc2c1=O)c1ccc2c(c1)OC(F)(F)O2 [Example 5],+++ (NAUC>70% of positive control)
5,Cc1nc2ccc(N(C)C(=O)Cn3nc(-c4cccc(F)c4)c4sc(C)nc4c3=O)cc2o1 [Example 19],+++ (NAUC>70% of positive control)
6,Cc1nc2ccc(N(C)C(=O)Cn3nc(-c4cccc(Cl)c4)c4sc(C)nc4c3=O)cc2o1 [Example 20],+++ (NAUC>70% of positive control)
7,CCN(C(=O)Cn1nc(-c2cccc(Cl)c2)c2[nH]cnc2c1=O)c1ccc2c(c1)OC(F)(F)O2 [Example 26],+++ (NAUC>70% of positive control)
8,"N#Cc1cccc(-c2nn(CC(=O)N(c3ccc4c(c3)OC(F)(F)O4)C3CCC3)c(=O)c3ccoc23)c1 [Example 33, 2-(7-(3-cyanophenyl)-4-oxofuro[2,3-d]pyridazin-5(4H)-yl)-N-cyclobutyl-N-(2,2-difluorobenzo[d][1,3]dioxol-5-yl)acetamide]",+++ (NAUC>70% of positive control)
9,N#Cc1cccc(-c2nn(CC(=O)N(c3ccc4c(c3)OC(F)(F)O4)C3CCOC3)c(=O)c3ccoc23)c1 (stereo not shown) [Example 39],+++ (NAUC>70% of positive control)
10,CCN(C(=O)Cn1nc(-c2cccc(F)c2)c2c(c1=O)CCC2)c1ccc2nc(C)oc2c1 [Example 43],+++ (NAUC>70% of positive control)
11,CCN(C(=O)Cn1nc(-c2cccc(C#N)c2)c2occc2c1=O)c1cc2c(cc1C)OC(F)(F)O2 [Example 45],+++ (NAUC>70% of positive control)
12,CCN(C(=O)Cn1nc(-c2cc(F)cc(OC)c2)c2occc2c1=O)c1ccc2c(c1)OC(F)(F)O2 [Example 47],+++ (NAUC>70% of positive control)
13,Cc1nc2ccc(N(C)C(=O)Cn3nc(-c4cccc(Cl)c4)c4c(c3=O)CCC4)cc2o1 [Example 48],++ (NAUC 70-40% of positive control)
14,CCN(C(=O)Cn1nc(-c2cccc(Cl)c2)c2c(c1=O)CCC2)c1ccc2nc(C)oc2c1 [Example 49],++ (NAUC 70-40% of positive control)
15,CCN(C(=O)Cn1nc(-c2cccc(C#N)c2)c2c(c1=O)CCC2)c1ccc2nc(C)oc2c1 [Example 50],+++ (NAUC>70% of positive control)
16,O=C(Cn1nc(-c2cccc(Cl)c2)c2occc2c1=O)N1CCCc2c1ccc1c2OC(F)(F)O1 [Example 51],++ (NAUC 70-40% of positive control)
17,N#Cc1cccc(-c2nn(CC(=O)N3CCCc4c3ccc3c4OC(F)(F)O3)c(=O)c3ccoc23)c1 [Example 52],++ (NAUC 70-40% of positive control)
18,CCN(C(=O)Cn1nc(-c2cccc(C#N)c2)c2occc2c1=O)c1ccc2c(c1C)OC(F)(F)O2 [Example 54],+++ (NAUC>70% of positive control)
19,CCc1c(N(CC)C(=O)Cn2nc(-c3cccc(C#N)c3)c3occc3c2=O)ccc2c1OC(F)(F)O2 [Example 55],+++ (NAUC>70% of positive control)
20,CCc1cc2c(cc1N(CC)C(=O)Cn1nc(-c3cccc(C#N)c3)c3occc3c1=O)OC(F)(F)O2 [Example 56],+ (NAUC<40% of positive control)
21,N#Cc1cccc(-c2nn(CC(=O)N3CC4(CC4)c4c3ccc3c4OC(F)(F)O3)c(=O)c3ccoc23)c1 [Example 58],+ (NAUC<40% of positive control)
22,CN(C(=O)Cn1nc(-c2cccc(C#N)c2)c2occc2c1=O)c1ccc2c(c1F)OC(F)(F)O2 [Example 59],+++ (NAUC>70% of positive control)
23,CCN(C(=O)Cn1nc(-c2cccc(C#N)c2)c2occc2c1=O)c1ccc2c(c1F)OC(F)(F)O2 [Example 60],+++ (NAUC>70% of positive control)
24,CCN(C(=O)Cn1nc(-c2cccc(C#N)c2)c2occc2c1=O)c1ccc(C(F)(F)F)cc1 [Example 61],+ (NAUC<40% of positive control)
25,CCN(C(=O)Cn1nc(-c2cccc(C#N)c2)c2occc2c1=O)c1ccc(OC(F)(F)F)cc1 [Example 62],+ (NAUC<40% of positive control)

# Further lines, results first:
row,Corr Activity (NAUC),SMILES
1,+++ (NAUC>70% of positive control),CN(C(=O)Cn1nc(-c2cccc(C#N)c2)c2sccc2c1=O)c1ccc2c(c1)OC(F)(F)O2 [Example 7]
2,++ (NAUC 70-40% of positive control),CCN(C(=O)Cn1nc(-c2cccc(Cl)c2)c2onc(C)c2c1=O)c1ccc2c(c1)OC(F)(F)O2 [Example 18]
3,++ (NAUC 70-40% of positive control),N#Cc1cccc(-c2nn(CC(=O)N(c3ccc4c(c3)OC(F)(F)O4)C3CC3)c(=O)c3ccoc23)c1 [Example 40]
4,+++ (NAUC>70% of positive control),CN(C(=O)Cn1nc(-c2cc(F)cc(F)c2)c2occc2c1=O)c1ccc2c(c1)OC(F)(F)O2 [Example 41]
5,+++ (NAUC>70% of positive control),CN(C(=O)Cn1nc(-c2cc(Cl)cc(Cl)c2)c2occc2c1=O)c1ccc2c(c1)OC(F)(F)O2 [Example 42]
6,+++ (NAUC>70% of positive control),Cc1cc2c(cc1N(C)C(=O)Cn1nc(-c3cccc(C#N)c3)c3occc3c1=O)OC(F)(F)O2 [Example 44]
7,+++ (NAUC>70% of positive control),Cc1c(N(C)C(=O)Cn2nc(-c3cccc(C#N)c3)c3occc3c2=O)ccc2c1OC(F)(F)O2 [Example 53]
8,++ (NAUC 70-40% of positive control),CCN(C(=O)Cn1nc(-c2cccc(C#N)c2)c2oc(Cl)cc2c1=O)c1ccc2c(c1)OC(F)(F)O2 [Example 63]
9,++ (NAUC 70-40% of positive control),CN(C(=O)Cn1nc(-c2cccc(C#N)c2)c2oc(Cl)cc2c1=O)c1ccc2c(c1)OC(F)(F)O2 [Example 64]
10,+ (NAUC<40% of positive control),"CN(C(=O)Cn1nc(-c2cccc(Cl)c2)c2oc(C(=O)N3CCCC3)cc2c1=O)c1ccc2c(c1)OC(F)(F)O2 [Example 65, 2-(7-(3-chlorophenyl)-4-oxo-2-(pyrrolidine-1-carbonyl)furo[2,3-d]pyridazin-5(4H)-yl)-N-(2,2-difluorobenzo[d][1,3]dioxol-5-yl)-N-methylacetamide]"
11,+++ (NAUC>70% of positive control),CCN(C(=O)Cn1nc(-c2cccc(C#N)c2)c2oc(C)cc2c1=O)c1ccc2c(c1)OC(F)(F)O2 [Example 69]
12,+++ (NAUC>70% of positive control),Cc1cc2c(=O)n(CC(=O)N(C)c3ccc4c(c3)OC(F)(F)O4)nc(-c3cc(Cl)cc(Cl)c3)c2o1 [Example 70]
13,+++ (NAUC>70% of positive control),Cc1cc2c(=O)n(CC(=O)N(C)c3ccc4c(c3)OC(F)(F)O4)nc(-c3cc(F)cc(F)c3)c2o1 [Example 71]
14,+++ (NAUC>70% of positive control),Cc1cc2c(=O)n(CC(=O)N(C)c3ccc4c(c3)OC(F)(F)O4)nc(-c3cc(Cl)cc(C#N)c3)c2o1 [Example 72]
15,+++ (NAUC>70% of positive control),CCN(C(=O)Cn1nc(-c2cc(Cl)cc(Cl)c2)c2oc(C)cc2c1=O)c1ccc2c(c1)OC(F)(F)O2 [Example 73]
